Results from the METLIN SMRT retention time set (Domingo-Almenara et al. 2019).

Assay: gradient 5% acetonitrile 3 min, to 50% in 2 min, to 85% in 15 min, held 3 min, 100 µL/min
Conditions: column: Zorbax Extend-C18 2.1 x 50 mm; eluents: water / acetonitrile, 0.1% formic acid
In short: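 The system's dead and dwell volumes were 40 μL and 900 μL, with a Zorbax Extend-C18 column (2.1 × 50 mm, 1.8 μm) run at 100 μL/min in water and acetonitrile containing 0.1% formic acid each. Pure standards were analyzed in mixtures of ~100 molecules by HPLC–quadrupole time-of-flight mass spectrometry in positive and negative ionization mode. Retention time was assigned from computationally picked, manually inspected adduct peaks.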

Row | RP-LC retention time [s] | SMILES
1 | 942 | Cc1ccc(NC(=O)N2CCCC(C)(C(=O)NCc3ccccc3C)C2)cc1 (centres undefined)
2 | 701 | Cc1ccc2c(c1)OCC(=O)N2CC(=O)NC1CC1
3 | 750 | CCCN1CCn2cc(S(=O)(=O)Nc3ccc(F)cc3)cc2C1=O
4 | 806 | CC(C)n1cnc(S(=O)(=O)N2CCCC(C(=O)NCCCc3ccccc3)C2)c1 (centres undefined)
5 | 714 | Cc1cccc(C)c1NC(=O)Cn1ncc2c(c1=O)N(C1CC1)C(=O)CS2
6 | 867 | CC(C)c1noc(C2(NC(=O)c3ccoc3)CCCCC2)n1
7 | 762 | COc1ccc(CN2CCc3nc(N4CCN(c5ccccc5OC)CC4)ncc3C2)cc1
8 | 659 | COc1cccc(C(O)CN2CCN(c3ccccc3OC)CC2)c1 (centres undefined)
9 | 586 | COc1ccccc1N1CCN(C(=S)Nc2ccc3nc(N4CCN(C)CC4)cc(C)c3c2)CC1
10 | 625 | CCc1nccn1Cc1nc(-c2ccc(F)cc2)no1
11 | 755 | Nc1nc2ccc(Cl)cc2c2nc(-c3ccco3)nn12
12 | 775 | COc1cccc(S(=O)(=O)N2CCC(n3cnnc3-c3ccccc3)CC2)c1
13 | 775 | C=C1C(=O)OC2CC(C)C3(O)CCC(=O)C3(C)CC12 (centres undefined)
14 | 763 | CCN(CC)CCOCCOC(=O)C(CC)(CC)c1ccccc1
15 | 837 | O=C1NC(c2cccc([N+](=O)[O-])c2)=CCN1c1ccccc1O
16 | 643 | CCC1CN(C(=O)N2CCC(C(=O)NCCCN3CCCCC3)CC2)c2ccccc2O1 (centres undefined)
17 | 768 | COc1ccc(CC(=O)N2CCC3(CC2)NC(=O)c2cc(F)ccc2N3C)cc1
18 | 860 | Cc1cc(C(F)F)n2nc(C(=O)Nc3ccc(C)c(C)c3)nc2n1
19 | 627 | Cc1ccc(C)c(S(=O)(=O)N2CCc3nc[nH]c3C2)c1
20 | 660 | Cn1cc(CCN2CCN(S(=O)(=O)c3ccc(F)c(Cl)c3)CC2)c2cccnc21
21 | 676 | CC(=O)N1c2ccc(S(=O)(=O)N3CCCCC3)cc2CC1C(=O)NCCN(C)Cc1ccccc1 (centres undefined)
22 | 920 | CSc1cccc(NC(=O)Cn2c(=O)n(-c3cccc(C)c3)c(=O)c3c2cc(C)n3C)c1

Row | RP-LC retention time [s] | SMILES
23 | 845 | CC(Oc1ccc(=O)n(-c2ccc(F)cc2)n1)C(=O)Nc1ccc(Cl)cc1 (centres undefined)
24 | 1120 | O=C(Nc1nc2c(s1)CCc1ccccc1-2)c1cccc(F)c1
25 | 879 | COC(=O)c1ccc(NC(=O)N2CC(C)Oc3ccccc32)cc1 (centres undefined)
26 | 636 | Cc1nnsc1C(=O)N1CCc2nc(NC(=O)c3ccco3)sc2C1
27 | 988 | CSc1ccc(-c2noc(-c3nn(-c4cccc(Br)c4)ccc3=O)n2)cc1
28 | 787 | COc1ccc(OC)c(CNC(=O)CN2CCN(Cc3ccc(F)cc3)C2=O)c1
29 | 668 | COC(=O)c1ccc2c(=O)n(-c3cc(OC)cc(OC)c3)c(N3CCN(C(C)C)CC3)nc2c1
30 | 807 | Cc1ccc(CNC(=O)C(C)n2nc(C)c3nn(-c4ccccc4)c(C)c3c2=O)o1 (centres undefined)
31 | 937 | c1ccc(N2CCN(Cc3nc(-c4ccc(N5CCSCC5)nc4)no3)CC2)cc1
32 | 778 | COCC(=O)NC1CCC12CCN(C(=O)CC1CCCCC1)CC2 (centres undefined)
33 | 792 | O=C(Nc1ccc(F)cc1F)C1CCCN(S(=O)(=O)c2c[nH]c(C(=O)N3CCCC3)c2)C1 (centres undefined)
34 | 959 | O=C(Nc1ccc(N2CCN(c3ccccc3)C2=O)nc1)c1cccc(Cl)c1
35 | 834 | Cc1cccc(OCC(=O)Nc2cccn3nc(C)nc23)c1
36 | 763 | CC(=O)c1ccc(NC(=O)Cn2c(=O)n(-c3ccc(F)cc3)c(=O)c3c2cc(C)n3C)cc1
37 | 629 | Cc1cc(=O)n(CC(=O)Nc2ccc3c(c2)OCO3)c(N2CCCC2)n1
38 | 718 | CCOC(=O)Cc1csc(NC(=O)Cn2nc3c(cc2=O)CCCC3)n1
39 | 818 | Cc1nn2c(CNS(=O)(=O)c3ccccc3)c(-c3ccccc3)nc2s1
40 | 605 | O=C(NCc1ccc2c(c1)OCO2)c1ccc2ncnc(N3CCOCC3)c2c1
41 | 822 | Cc1ccc(N2CC(C(=O)NCC(=O)N3CCCc4ccccc43)CC2=O)cc1C (centres undefined)
42 | 718 | O=C(NCc1ccc(C(F)(F)F)cc1)C1CCN(c2nnc3ccc(Cl)cn23)CC1
43 | 574 | CCC(C)NC(=O)C1CCN(CCc2cn(C)c3ncccc23)CC1 (centres undefined)
44 | 693 | Nc1ccc(NC(=O)c2ccc(C(F)(F)F)cc2)nc1

Row | RP-LC retention time [s] | SMILES
45 | 934 | CCCC(=O)Nc1nnc(SCc2ccc(Br)cc2)s1
46 | 904 | CC(C)Cn1cc(CCNC(=O)Nc2cccc(Br)c2)c2cccnc21
47 | 749 | O=C(NCCc1csc(-c2ccccc2)n1)C1CCN(C(=O)c2ccco2)CC1
48 | 1150 | O=C(NC1CCCCCC1)C1CCCN(c2ncc(-c3ccc(F)cc3)cn2)C1 (centres undefined)
49 | 624 | CCc1nc2c(c(=O)n1CC(=O)NCc1cccs1)CN(Cc1ccccc1)CC2
50 | 784 | O=C([C@@H]1C[C@H](F)CN1S(=O)(=O)c1ccc(F)cc1)N1CCCCC1
51 | 771 | Cc1ccnc(OCC(=O)Nc2ccc(OC(F)(F)F)cc2)n1
52 | 657 | CCOCC(=O)Nc1ccc(-c2nnc(CC)o2)cc1
53 | 666 | COc1ccccc1CNS(=O)(=O)c1cc(-c2[nH]ncc2C(=O)N(C)C)oc1C
54 | 771 | COc1ccc(C(CC(=O)N2CCCCC2)N2Cc3ccccc3C2=O)cc1OC (centres undefined)
55 | 1270 | CCn1nccc1-c1cccc(-c2noc(-c3ccc(F)cc3F)n2)c1
56 | 608 | O=C(Cn1nc(Cc2cccnc2)c2ccccc2c1=O)Nc1ccc(Cl)cn1
57 | 610 | CCn1ccc(C(=O)N2CC(c3nc(C4CC4)nn3C)C2)n1
58 | 1120 | CC1CCN(S(=O)(=O)c2cc(C(=O)N3CCN(c4cccc(Cl)c4)CC3)n(C)c2)CC1
59 | 895 | CCCn1cc(C(=O)Nc2ccc(N3CCOCC3)cc2)c2cccnc21
60 | 746 | CCCN1CCn2cc(S(=O)(=O)Nc3ccccc3C)cc2C1=O
61 | 588 | CCN1CCCC1CNC(=O)CCc1cc2cc(C)ccc2[nH]c1=O (centres undefined)
62 | 777 | Cc1ccc(Nc2c(-c3ccc(N4CCOCC4)cc3)nc3ccc(Cl)cn23)cc1
63 | 617 | CCOC(=O)Cc1csc(NC(=O)CSc2nnc3ccccn23)n1
64 | 1130 | Cc1ccc(Sc2nccnc2N2CCCC(C(=O)NCc3ccc(F)cc3F)C2)cc1 (centres undefined)
65 | 720 | COCC(=O)Nc1nc(-c2ccc3c(c2)NC(=O)C(C)O3)c(C)s1 (centres undefined)
66 | 974 | COc1ccc(Cl)cc1NC(=O)Cn1nc2cc(-c3ccccc3)nc(C)n2c1=O

Row | RP-LC retention time [s] | SMILES
67 | 908 | CC1CCN(C(=O)C2=CN(c3cccc(F)c3)c3ccccc3S2(=O)=O)CC1
68 | 844 | CCC1=C(c2ccc(C)cc2)S(=O)(=O)N=C1N1CCC(C(=O)NCCCOC(C)C)CC1
69 | 717 | COc1ccc(C)cc1NC(=O)N1C[C@@H]2C[C@H](NS(C)(=O)=O)[C@H]1C2
70 | 930 | CCCCOC(=O)c1ccc(Nc2ncnc(N)c2[N+](=O)[O-])cc1
71 | 633 | Cc1nn(-c2ccc(N3CCOCC3)nn2)c(C)c1CCC(=O)NCc1ccco1
72 | 590 | Cc1cccc(CN2CCn3c(nnc3[C@@H]3C[C@@H](O)CN3C)C2)c1
73 | 817 | O=C(CN1C(=O)c2cccnc2Sc2ccccc21)NCCc1c[nH]c2ccc(Cl)cc12
74 | 724 | Cn1ccc2c(cc(C(=O)NCc3cccc(Cl)c3)n2C)c1=O
75 | 813 | CC(=O)c1ccc(NS(=O)(=O)c2ccc(-c3c(C)noc3C)cc2)cc1
76 | 761 | CCOC(=O)C1CCN(C(=O)C2CCCN(c3ccc(-c4ccc(C)c(C)c4)nn3)C2)CC1 (centres undefined)
77 | 664 | CN(C)C(=O)c1ccc(-c2nnc3ccc(NC(=O)C4CCC4)cn23)cc1
78 | 746 | Cc1ccc(CN2CCCN(c3ncccc3-c3nc(C(C)C)no3)CC2)cc1
79 | 860 | CC(C)c1ccc(N2C(=O)CN(S(C)(=O)=O)CC2(C)C(=O)NCc2ccccc2)cc1 (centres undefined)
80 | 587 | CCOC(=O)c1cnc2nc(C)ccc2c1Nc1ccc(OC)c(OC)c1
81 | 821 | CCC(C)NC(=O)N1CC=C(c2cn(C(C)C)c3ncccc23)CC1 (centres undefined)
82 | 837 | Cc1c(C(=O)NCC2CCCO2)cnn1-c1cc(-c2nc(C3CC3)no2)ccn1 (centres undefined)
83 | 863 | CCC(C)(C)NS(=O)(=O)c1cc(-c2nc(C)c(C(=O)N3CCCC3)s2)cs1
84 | 652 | COc1ccc(NC(=O)NC2CCN(C(=O)N3C[C@H]4C[C@H](C3)[C@H]3CCCC(=O)N3C4)CC2)cc1
85 | 723 | O=C1CCCc2c1cc(C(=O)N1CCOCC1)c(=O)n2-c1ccc(C(F)(F)F)cc1
86 | 748 | CCC(C)NC(=O)N1CCCN(C2=NS(=O)(=O)C(c3ccccc3)=C2C)CC1 (centres undefined)
87 | 800 | Cc1ccc(-c2cn3nc(N4CCCC(C(=O)N5CCOCC5)C4)sc3n2)cc1 (centres undefined)

Row | SMILES | RP-LC retention time [s]
88 | CCn1cc(C(=O)NCc2ccc(C)cc2)c2cccnc21 | 811
89 | Cc1cc(C)nc(Nc2nc(CC(=O)N3CCN(C4CCCCC4)CC3)cs2)n1 | 558
